In patent publication US8133849B2, “Herbicidal compounds” (Syngenta Limited, priority 2007, dated 2012):

Columns and labels:
Test in all cases: Example B2 herbicidal action, post-emergence, pots in glasshouse, damage score 0-10
Assay type in all cases: in vivo
Conditions in all cases: application post-emergence, rate 1000 g/ha, evaluated after 13 days
Setaria faberi = test system: Setaria faberi
Procedure, shortened: (§1)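 Evaluation took place 13 days post-spray. Treatment used an acetone/water (50:50), 0.5% Tween 20 formulation applied to 8-day-old potted plants, held at 24/16 °C with 14 h light, 65% humidity and twice-daily watering.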

Echinochloa crus-galli = test system: Echinochloa crus-galli
Procedure, shortened: as §1

Ipomea hederaceae = test system: Ipomea hederaceae
Procedure, shortened: as §1

Solanum nigrum = test system: Solanum nigrum
Procedure, shortened: as §1

Amaranthus retroflexus = test system: Amaranthus retroflexus
Procedure, shortened: as §1

Structure (SMILES)	SETFA damage score (10=total damage to plant; 0=no damage to plant) (Setaria faberi)	ECHCG damage score (10=total damage to plant; 0=no damage to plant) (Echinochloa crus-galli)	IPOHE damage score (10=total damage to plant; 0=no damage to plant) (Ipomea hederaceae)	SOLNI damage score (10=total damage to plant; 0=no damage to plant) (Solanum nigrum)	AMARE damage score (10=total damage to plant; 0=no damage to plant) (Amaranthus retroflexus)
O=S1(=O)C(c2ccccc2Br)=C(O)c2nccnc2N1CC(F)F [Compound D18]	5	4	10	10	10
CC(C)C(=O)OC1=C(c2cc(C(F)(F)F)ccc2Cl)S(=O)(=O)N(CCCl)c2nccnc21 [Compound C123]	1	2	4	10	4
O=S1(=O)C(c2c(C(F)(F)F)cccc2C(F)(F)F)=C(O)c2nccnc2N1CC(F)F [Compound D42]	7	4	9	8	7
CN1c2nccnc2C(OC(=O)C(C)(C)C)=C(c2c(Cl)ccc(Cl)c2Cl)S1(=O)=O [Compound C93]	0	3	6	6	0
CCSC(=O)OC1=C(c2cccc(Cl)c2Cl)S(=O)(=O)N(CC)c2nccnc21 [Compound C99]	1	2	3	8	3
CCN1c2nccnc2C(O)=C(c2c(F)ccc(Br)c2Cl)S1(=O)=O [Compound D13]	2	5	9	9	8
COc1ccc(Cl)c(C2=C(O)c3nccnc3N(CC(F)F)S2(=O)=O)c1F [Compound D60]	2	4	8	7	1
O=[N+]([O-])c1ccccc1C1=C(O)c2nccnc2N(CC(F)F)S1(=O)=O [Compound D32]	1	0	5	6	5
COc1ccc(F)c(C2=C(OC(=O)C(C)(C)C)c3nccnc3N(CC(F)F)S2(=O)=O)c1Cl [Compound C25]	0	6	9	10	9
CC(C)C(=O)OC1=C(c2ccccc2I)S(=O)(=O)N(CC(F)F)c2nccnc21 [Compound C117]	7	8	9	10	10
C=CCN1c2nccnc2C(O)=C(c2cc(Cl)ccc2C(F)(F)F)S1(=O)=O [Compound D54]	3	3	4	7	2
CC(C)(C)C(=O)OC1=C(c2ccccc2OC(F)(F)F)S(=O)(=O)N(CC(F)F)c2nccnc21 [Compound C21]	4	6	9	10	7
CC(C)C(=O)OC1=C(c2cccc(Cl)c2Cl)S(=O)(=O)N(CC(F)F)c2nccnc21 [Compound C102]	0	0	6	7	1
O=S1(=O)C(c2c(Cl)cccc2C(F)(F)F)=C(O)c2nccnc2N1CC(F)F [Compound D11]	8	8	9	10	10
CC(C)C(=O)OC1=C(c2ccc(Cl)cc2Cl)S(=O)(=O)N(CC(Cl)Cl)c2nccnc21 [Compound C116]	3	2	6	10	10
O=S1(=O)C(c2ccc(C(F)(F)F)cc2C(F)(F)F)=C(O)c2nccnc2N1CC(F)F [Compound D55]	4	5	10	10	10
CC(C)C(=O)OC1=C(c2ccc(Br)cc2C(F)(F)F)S(=O)(=O)N(CC(F)F)c2nccnc21 [Compound C132]	7	6	10	10	10
Cc1ccc(C2=C(OC(=O)C(C)C)c3nccnc3N(CC(F)F)S2(=O)=O)c(Cl)c1 [Compound C136, isobutyric acid 3-(2-chloro-4-methyl-phenyl)-1-(2,2-difluoro-ethyl)-2,2-dioxo-1,2-dihydro-2-λ-6-thia-1,5,8-triaza-naphthalen-4-yl ester]	2	0	7	8	3
CCSC(=O)OC1=C(c2c(Cl)ccc(Cl)c2C(F)(F)F)S(=O)(=O)N(CC(F)F)c2nccnc21 [Compound C103]	6	7	6	9	8
CSC(=O)OC1=C(c2ccc(Br)cc2C(F)(F)F)S(=O)(=O)N(CC(F)F)c2nccnc21 [Compound C133]	7	8	8	10	10
CC(C)(C)C(=O)OC1=C(c2c(Cl)cccc2C(F)(F)F)S(=O)(=O)N(CC(F)F)c2nccnc21 [Compound C31]	7	8	8	9	8
O=S1(=O)C(c2cc(Cl)cc(C(F)(F)F)c2)=C(O)c2nccnc2N1CC(F)F [Compound D19]	0	0	0	2	0
CCN1c2nccnc2C(OC(=O)C(C)(C)C)=C(c2cc(F)c(Cl)cc2Cl)S1(=O)=O [Compound C45]	1	4	9	7	0
CCc1cc(C)cc(CC)c1C1=C(OC(=O)C(C)C)c2nccnc2N(CC(F)F)S1(=O)=O [Compound C48]	0	0	6	5	3
O=S1(=O)C(c2ccccc2I)=C(O)c2nccnc2N1CC(F)F [Compound D44]	6	9	10	10	10
CCN1c2nccnc2C(OC(=O)C(C)C)=C(c2ccccc2OC(F)(F)F)S1(=O)=O [Compound C13]	3	10	10	9	10
